Active and inactive are the calls of the source.

Assay [1] in a line: A High Throughput Confirmatory Assay used to Identify Novel Compounds that Inhibit Mycobacterium Tuberculosis in the absence of Glycerol. It counts as functional.
A short description of assay [2]: M. tuberculosis growth inhibition, HTS (AID 449762). It is filed as functional.
Assay [3] concerns the target Protein-tyrosine kinase 2-beta (Homo sapiens, UniProt Q14289).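 Also: potency of inhibitors of PYK2 kinase phosphorylation of poly-GT substrate.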
Assay [4] addresses Epstein-Barr nuclear antigen 1 (Epstein-Barr virus (strain B95-8) (HHV-4) (Human herpesvirus 4), UniProt P03211). Put plainly: EBNA-1 inhibitors, dose response, biochemical, fluorescence polarization, 1536-well (AID 2381).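 Also: fluorescence polarization of a Cy5 DNA probe bound by EBNA-1 protein.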 Also on record: species or system human gammaherpesvirus 4.
In assay [5] the target is Lytic switch protein BZLF1 (Epstein-Barr virus (strain B95-8) (HHV-4) (Human herpesvirus 4), UniProt P03206). Put plainly: EBV ZTA inhibitors, dose response, counter-screen for EBNA-1 inhibitor project, biochemical, fluorescence polarization, Epstein-Barr virus, 1536-well (AID 2377).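 Also: fluorescence polarization of Cy5-labelled ZRE DNA probe bound by purified Zta.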 Also on record: species or system human gammaherpesvirus 4.
Assay [6] in a line: Luminescence Cell-Based Dose Response to Identify Activators of 5'UTR Stem-Loop Driven Prion Protein mRNA Translation in H4-C Neuroglioblastoma Cells. [Related pubchem assays: 1829 (Project Summary), 1814 (Primary HTS)]. It is filed as functional.
A short description of assay [7]: Luminescence Cell-Based Dose Confirmation HTS to Identify Activators of 5'UTR Stem-Loop Driven Alpha-Synuclein mRNA Translation in H4 Neuroglioblastoma Cells. [Related pubchem assays: 1829 (Project Summary), 1814 (Primary HTS)]. It counts as functional.
A short description of assay [8]: Luminescence Cell-Based Dose Response HTS to Identify Activators of Luciferase Translation or Activity in H4 […] Cells. [Related pubchem assays: 1829 (Project Summary), 1814 (Primary HTS)]. It is filed as functional.
Another assay concerns H4. Put plainly: Luminescence Cell-Based Dose Response HTS to Identify Activators of 5'UTR Stem-Loop Driven Prion Protein mRNA Translation in H4 Neuroglioblastoma Cells. [Related pubchem assays: 1829 (Project Summary), 1814 (Primary HTS)]. It counts as functional. The note with it: Homo sapiens.
Assay [9] is described as follows: Luminescence Cell-Based Dose Response to Identify Activators of Luciferase Translation or Activity in H4-C Neuroglioblastoma Cells. [Related pubchem assays: 1829 (Project Summary), 1814 (Primary HTS)]. It is filed as functional.
Assay [10] in a line: Luminescence Cell-Based Dose Confirmation to Identify Activators of 5'UTR Stem-Loop Driven Alpha-Synuclein mRNA Translation in H4 Neuroglioblastoma Cells. [Related pubchem assays: 1829 (Project Summary), 1814 (Primary HTS)]. It is filed as functional.
Assay [11] is described as follows: Luminescent dose response cell-based high throughput screening assay for inhibitors of the Janus kinase 2 mutant JAK2V617F. [Related pubchem assays: 1446 (Primary screen.), 1521 (Confirmation assay.), 1486 (Counter screen.)]. It is filed as functional.
Assay [12] has as its system Vero. In words: host cell cytotoxicity of antiviral hits, dose response, cytotoxicity control for West Nile virus antiviral project, secondary assay (AID 1650). It is filed as functional. As to conditions: Chlorocebus sabaeus.
A short description of assay [13]: Luminescence Cell-Based Dose Retest to Confirm Inhibitors of Cancer Stem Cells. [Related pubchem assays (depositor defined):AID2717, AID2721]. It counts as functional. The note with it: Homo sapiens.
The target in assay [14] is T1, Heat shock factor protein 1 (Mus musculus, UniProt P38532).
T1 sequence (P38532 whole entry): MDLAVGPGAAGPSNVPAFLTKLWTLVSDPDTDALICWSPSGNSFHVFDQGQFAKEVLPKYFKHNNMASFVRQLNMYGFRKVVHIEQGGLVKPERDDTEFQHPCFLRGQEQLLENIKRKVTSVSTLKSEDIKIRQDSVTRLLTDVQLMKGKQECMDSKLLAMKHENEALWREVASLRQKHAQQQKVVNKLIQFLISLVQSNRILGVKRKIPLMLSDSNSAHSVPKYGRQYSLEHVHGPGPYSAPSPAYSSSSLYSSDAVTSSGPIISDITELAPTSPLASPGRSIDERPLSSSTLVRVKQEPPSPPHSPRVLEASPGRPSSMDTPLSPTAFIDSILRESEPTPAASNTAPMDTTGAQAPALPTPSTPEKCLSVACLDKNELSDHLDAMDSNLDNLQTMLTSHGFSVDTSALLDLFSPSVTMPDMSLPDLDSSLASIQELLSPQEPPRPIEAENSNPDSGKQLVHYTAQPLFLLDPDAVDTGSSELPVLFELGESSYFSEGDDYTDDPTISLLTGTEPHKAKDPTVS
In words: HSF1 potentiators in luciferase reporter cells, confirmation, cell-based, NIH3T3, luminescence, dose retest (AID 435004).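 Also: stress induced by proteasome inhibitor MG132 added 30 min after compound; luciferase reporter driven by HSF1 response element in NIH3T3 cells; actives raise luminescence as potentiators of the MG132 stress response.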 It counts as functional.

The target in assay [15] is T2, Replicative DNA helicase DnaB (Mycobacterium tuberculosis, UniProt P9WMR3).
T2 sequence (P9WMR3 whole entry): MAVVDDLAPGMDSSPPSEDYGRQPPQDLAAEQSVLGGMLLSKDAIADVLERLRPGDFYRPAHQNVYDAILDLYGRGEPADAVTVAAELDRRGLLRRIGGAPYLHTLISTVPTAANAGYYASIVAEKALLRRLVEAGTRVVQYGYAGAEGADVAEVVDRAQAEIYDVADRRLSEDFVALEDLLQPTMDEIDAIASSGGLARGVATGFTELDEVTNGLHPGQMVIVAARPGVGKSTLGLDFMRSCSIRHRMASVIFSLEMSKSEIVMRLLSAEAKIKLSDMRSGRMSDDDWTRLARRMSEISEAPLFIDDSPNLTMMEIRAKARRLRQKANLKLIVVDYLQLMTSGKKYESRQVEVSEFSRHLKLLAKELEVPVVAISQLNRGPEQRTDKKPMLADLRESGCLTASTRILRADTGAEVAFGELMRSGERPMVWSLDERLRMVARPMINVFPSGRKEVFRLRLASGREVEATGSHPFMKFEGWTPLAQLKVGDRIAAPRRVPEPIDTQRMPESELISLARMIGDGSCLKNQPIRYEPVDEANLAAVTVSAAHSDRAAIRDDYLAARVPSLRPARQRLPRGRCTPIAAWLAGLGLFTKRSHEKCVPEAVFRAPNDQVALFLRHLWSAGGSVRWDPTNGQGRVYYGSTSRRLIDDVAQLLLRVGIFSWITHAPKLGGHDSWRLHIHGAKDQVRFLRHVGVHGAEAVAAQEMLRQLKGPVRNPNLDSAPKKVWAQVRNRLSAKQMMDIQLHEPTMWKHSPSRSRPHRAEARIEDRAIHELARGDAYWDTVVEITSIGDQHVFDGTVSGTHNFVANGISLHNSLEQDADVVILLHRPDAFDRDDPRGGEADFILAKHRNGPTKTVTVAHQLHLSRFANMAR
Put plainly: DnaB intein splicing inhibitors, dose response, biochemical, cell-free fluorescence (AID 449749). It is filed as functional.

The subject of assay [16] is Vero. In words: Vero cell cytotoxicity, cytotoxicity control for flavivirus capping enzyme inhibitors (AID 588742). It is filed as functional. As to conditions: Chlorocebus sabaeus.
For assay [17], the system named is Vero. Put plainly: cells. It counts as functional, cell-based. The note with it: Chlorocebus sabaeus.
The target in another assay is T3, Protein RecA (Mycobacterium tuberculosis, UniProt P9WHJ3).
T3 sequence (P9WHJ3 whole entry): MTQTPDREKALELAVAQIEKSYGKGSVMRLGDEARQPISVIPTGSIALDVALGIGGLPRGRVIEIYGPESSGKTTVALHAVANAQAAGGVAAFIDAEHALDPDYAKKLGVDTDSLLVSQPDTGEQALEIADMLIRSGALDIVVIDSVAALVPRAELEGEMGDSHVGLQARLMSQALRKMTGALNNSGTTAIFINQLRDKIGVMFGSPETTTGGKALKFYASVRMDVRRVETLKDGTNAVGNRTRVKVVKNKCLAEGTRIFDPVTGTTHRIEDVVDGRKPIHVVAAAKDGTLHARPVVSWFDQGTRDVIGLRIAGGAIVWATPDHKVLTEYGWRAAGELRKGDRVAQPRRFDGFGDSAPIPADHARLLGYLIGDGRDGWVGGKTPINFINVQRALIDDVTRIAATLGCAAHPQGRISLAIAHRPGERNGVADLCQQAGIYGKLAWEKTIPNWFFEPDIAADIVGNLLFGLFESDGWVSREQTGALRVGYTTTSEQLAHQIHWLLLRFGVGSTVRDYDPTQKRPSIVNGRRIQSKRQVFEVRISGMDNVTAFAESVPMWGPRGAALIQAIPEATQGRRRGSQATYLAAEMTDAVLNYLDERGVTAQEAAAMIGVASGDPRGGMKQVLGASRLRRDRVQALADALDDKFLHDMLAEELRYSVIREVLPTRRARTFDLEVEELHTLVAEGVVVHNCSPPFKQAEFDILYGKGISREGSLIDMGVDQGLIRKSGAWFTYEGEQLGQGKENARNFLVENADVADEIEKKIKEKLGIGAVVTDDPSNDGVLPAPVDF
Put plainly: Fluorescence Cell-Free Homogeneous Dose Retest to Identify Inhibitors of RecA-Intein Splicing Activity. [Related pubchem assays (depositor defined):AID2097, AID2223, AID489010, AID492950]. It is filed as functional.

The subject of assay [18] is Vero. Put plainly: cells. The note with it: Chlorocebus sabaeus. It is filed as functional.
Another assay deals with Genome polyprotein (dengue virus type 2, UniProt P29990). Put plainly: Dengue-2 NS5 methyltransferase inhibitors, primary screen, biochemical, confirmation dose response (AID 588689). It counts as functional.
Assay [19] addresses 5-hydroxytryptamine receptor 1E (Homo sapiens, UniProt P28566). In words: Counterscreen assay for S1P3 antagonists: Dose response cell-based high throughput screening assay to identify antagonists of the 5-Hydroxytryptamine Receptor Subtype 1E (5HT1E). [Related pubchem assays: 1429, 485 ]. It counts as functional.
Assay [20] has as its target Sphingosine 1-phosphate receptor 3 (Homo sapiens, UniProt Q99500). Put plainly: Dose response cell-based high throughput screening assay for antagonists of the Sphingosine 1-Phosphate Receptor 3 (S1P3). [Related pubchem assays: 1429, 485 ]. It counts as functional.

Sequence of Genome polyprotein (P29990 2492-3391 limits assumed): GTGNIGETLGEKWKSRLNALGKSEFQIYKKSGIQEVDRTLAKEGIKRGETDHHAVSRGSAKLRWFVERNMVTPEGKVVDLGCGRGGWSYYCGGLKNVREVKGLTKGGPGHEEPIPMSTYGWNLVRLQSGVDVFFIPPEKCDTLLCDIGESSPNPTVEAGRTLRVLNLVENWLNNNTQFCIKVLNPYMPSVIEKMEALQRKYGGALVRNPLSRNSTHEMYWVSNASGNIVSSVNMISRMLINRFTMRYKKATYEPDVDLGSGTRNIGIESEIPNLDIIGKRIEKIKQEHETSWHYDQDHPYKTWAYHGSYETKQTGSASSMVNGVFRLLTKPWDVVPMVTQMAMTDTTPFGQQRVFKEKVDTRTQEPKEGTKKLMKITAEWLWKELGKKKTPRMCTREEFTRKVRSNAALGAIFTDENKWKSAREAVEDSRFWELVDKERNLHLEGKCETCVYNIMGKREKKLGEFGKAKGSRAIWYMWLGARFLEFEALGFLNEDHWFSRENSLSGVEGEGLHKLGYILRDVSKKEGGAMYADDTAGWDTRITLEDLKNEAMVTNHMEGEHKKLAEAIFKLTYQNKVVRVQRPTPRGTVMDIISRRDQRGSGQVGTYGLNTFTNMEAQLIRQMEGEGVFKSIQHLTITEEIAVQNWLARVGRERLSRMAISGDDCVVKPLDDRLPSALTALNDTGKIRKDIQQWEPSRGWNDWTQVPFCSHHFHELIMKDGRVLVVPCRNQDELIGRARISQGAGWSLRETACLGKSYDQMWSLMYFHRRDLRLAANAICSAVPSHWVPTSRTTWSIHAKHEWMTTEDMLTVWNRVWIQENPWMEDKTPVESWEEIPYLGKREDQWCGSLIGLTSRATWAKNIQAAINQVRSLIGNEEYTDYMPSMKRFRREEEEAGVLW
Sequence of Sphingosine 1-phosphate receptor 3 (Q99500 whole entry): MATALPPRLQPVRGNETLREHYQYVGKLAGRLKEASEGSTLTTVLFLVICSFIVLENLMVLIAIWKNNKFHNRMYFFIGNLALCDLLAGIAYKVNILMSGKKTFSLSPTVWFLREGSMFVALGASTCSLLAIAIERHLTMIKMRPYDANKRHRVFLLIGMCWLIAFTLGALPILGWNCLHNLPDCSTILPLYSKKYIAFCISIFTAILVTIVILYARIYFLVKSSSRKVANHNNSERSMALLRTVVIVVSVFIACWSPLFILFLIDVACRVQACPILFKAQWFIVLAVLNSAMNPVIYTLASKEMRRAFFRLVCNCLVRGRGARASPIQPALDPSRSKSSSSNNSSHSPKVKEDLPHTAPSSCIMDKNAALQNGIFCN
Sequence of Lytic switch protein BZLF1 (P03206 whole entry): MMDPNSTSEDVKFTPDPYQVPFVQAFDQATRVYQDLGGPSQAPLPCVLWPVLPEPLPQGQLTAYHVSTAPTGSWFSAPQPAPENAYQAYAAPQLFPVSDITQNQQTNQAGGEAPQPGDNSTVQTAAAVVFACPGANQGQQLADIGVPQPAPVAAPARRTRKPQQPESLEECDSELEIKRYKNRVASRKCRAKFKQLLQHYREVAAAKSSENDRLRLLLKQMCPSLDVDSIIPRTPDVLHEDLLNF
Sequence of 5-hydroxytryptamine receptor 1E (P28566 whole entry): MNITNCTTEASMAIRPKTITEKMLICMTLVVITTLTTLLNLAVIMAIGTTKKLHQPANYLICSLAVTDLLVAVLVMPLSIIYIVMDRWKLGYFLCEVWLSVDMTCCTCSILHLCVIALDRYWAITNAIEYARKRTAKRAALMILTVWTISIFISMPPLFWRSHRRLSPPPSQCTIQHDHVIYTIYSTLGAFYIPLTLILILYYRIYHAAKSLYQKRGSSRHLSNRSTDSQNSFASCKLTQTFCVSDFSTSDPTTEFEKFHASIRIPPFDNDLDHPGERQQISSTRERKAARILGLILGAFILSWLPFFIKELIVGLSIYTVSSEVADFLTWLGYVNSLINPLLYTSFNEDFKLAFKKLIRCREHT
Sequence of Protein-tyrosine kinase 2-beta (Q14289 whole entry): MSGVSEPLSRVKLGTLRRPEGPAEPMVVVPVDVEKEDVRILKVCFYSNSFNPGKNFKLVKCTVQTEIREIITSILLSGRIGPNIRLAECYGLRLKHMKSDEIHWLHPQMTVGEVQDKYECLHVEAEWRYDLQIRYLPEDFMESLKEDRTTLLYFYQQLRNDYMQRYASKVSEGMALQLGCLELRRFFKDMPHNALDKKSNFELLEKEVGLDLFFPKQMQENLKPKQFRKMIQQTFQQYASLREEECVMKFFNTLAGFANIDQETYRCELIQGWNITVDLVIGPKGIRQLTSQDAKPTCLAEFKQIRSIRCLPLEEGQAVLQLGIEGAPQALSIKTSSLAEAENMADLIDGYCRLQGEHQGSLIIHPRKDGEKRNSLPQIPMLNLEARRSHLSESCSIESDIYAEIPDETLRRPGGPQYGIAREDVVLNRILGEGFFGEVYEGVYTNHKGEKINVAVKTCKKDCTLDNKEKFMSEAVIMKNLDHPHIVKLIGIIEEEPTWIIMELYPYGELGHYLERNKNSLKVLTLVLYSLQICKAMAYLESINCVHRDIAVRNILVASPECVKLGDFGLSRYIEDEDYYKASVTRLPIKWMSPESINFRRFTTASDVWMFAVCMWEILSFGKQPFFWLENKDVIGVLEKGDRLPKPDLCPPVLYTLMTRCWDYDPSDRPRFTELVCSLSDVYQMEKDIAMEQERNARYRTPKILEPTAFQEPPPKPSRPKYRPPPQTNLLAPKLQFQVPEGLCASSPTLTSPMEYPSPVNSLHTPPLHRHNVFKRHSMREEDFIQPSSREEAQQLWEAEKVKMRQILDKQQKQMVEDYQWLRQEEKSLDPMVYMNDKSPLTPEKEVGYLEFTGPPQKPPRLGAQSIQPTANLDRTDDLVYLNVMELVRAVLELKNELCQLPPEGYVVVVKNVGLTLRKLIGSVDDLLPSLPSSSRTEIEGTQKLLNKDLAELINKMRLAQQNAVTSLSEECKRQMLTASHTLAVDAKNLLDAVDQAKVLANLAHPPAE
Sequence of Epstein-Barr nuclear antigen 1 (P03211 whole entry): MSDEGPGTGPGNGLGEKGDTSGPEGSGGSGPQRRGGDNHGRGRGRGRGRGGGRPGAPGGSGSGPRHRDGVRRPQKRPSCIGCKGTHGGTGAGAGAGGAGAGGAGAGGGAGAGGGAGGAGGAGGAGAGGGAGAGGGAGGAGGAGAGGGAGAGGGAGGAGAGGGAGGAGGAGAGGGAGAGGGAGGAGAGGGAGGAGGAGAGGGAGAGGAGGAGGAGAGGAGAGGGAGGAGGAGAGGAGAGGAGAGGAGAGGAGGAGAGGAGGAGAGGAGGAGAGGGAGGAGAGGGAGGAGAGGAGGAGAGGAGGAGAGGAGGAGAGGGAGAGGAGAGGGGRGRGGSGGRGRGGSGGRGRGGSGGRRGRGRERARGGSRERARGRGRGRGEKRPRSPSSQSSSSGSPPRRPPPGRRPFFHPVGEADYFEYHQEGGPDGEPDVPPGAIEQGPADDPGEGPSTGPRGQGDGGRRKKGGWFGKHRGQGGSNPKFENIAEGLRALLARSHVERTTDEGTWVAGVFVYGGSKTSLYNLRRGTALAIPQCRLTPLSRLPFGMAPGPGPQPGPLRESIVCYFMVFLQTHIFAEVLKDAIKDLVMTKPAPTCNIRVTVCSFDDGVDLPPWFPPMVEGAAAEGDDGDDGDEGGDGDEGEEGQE

As to `O=c1c2ccccc2nc(/C=C/c2ccccc2)n1-c1ccc(O)cc1`, the IC50 in assay [1] is > 50 µM (active); in assay [2], > 100 µM (active).
Consider `CCN(CC)S(=O)(=O)c1cc([N+](=O)[O-])ccc1NNC(=O)Nc1ccccc1`, for which the IC50 in assay [3] is on record as > 69.5 µM (not active).
With `O=C(Nc1ccc(Oc2ccc3c(c2)C(=O)N(c2ccc(O)cc2)C3=O)cc1)c1cccs1`, the IC50 was 15.1 µM (not active) in [4] and > 111 µM (not active) in assay [5].
With `NNc1nc2c(F)cccc2s1`, the EC50 in [6] was > 12 µM (not active); in [7] it was < 0.1 µM (active); in assay [8] it was 5.67 µM (active); with H4, > 120 µM (not active); in assay [9], > 12 µM (not active); in [10], > 12 µM (not active).
Regarding `Cc1ccc(NC(=O)C(=Cc2ccc(C(=O)O)cc2)C(=O)Nc2ccc(C)cc2C)c(C)c1`, the half-inhibitory concentration (IC50) in assay [11] was 1.95 µM (active); with Vero [17] it was 19.6 µM (active); on Genome polyprotein it was > 100 µM (active). Besides, the values for the CC50 with Vero [12], in the assay on Vero [16] and in the assay with Vero [18] were 7.51 µM (active), 27.3 µM (active) and 9.83 µM (active), respectively. Besides, the AC50 in assay [13] was 1.9 µM (active); in [15] it was 2.51 µM (active). Also, the values for the EC50 (in [14]; at Protein RecA) were 6.71 µM (active) and 3.21 µM (active), respectively.
For `CC1CCCCN1C(=O)Cn1cc(C(=O)c2ccco2)c2ccccc21` (stereo not drawn), the IC50 in assay [19] and in assay [20] was > 50 µM (not active) in each case.

The values above are taken from ChEMBL document CHEMBL1201862, “PubChem BioAssay data set” (2004).
